Reference: patent publication US20260035452A1 (THE UNIVERSITY OF BIRMINGHAM, priority 2022, published 2026)
No end group written: not given here.

What was measured:
[1] = test system: NIH-3T3 mouse embryonic fibroblast cells; experiment: IL-6 secretion by NIH-3T3 fibroblasts (Elisa); assay type: cell-based; settings: NIH-3T3 cells, 50 ng/ml, vs control / IL-17 group
Experimental: FIG. 2: NIH-3T3 mouse embryonic fibroblast cells were treated with IL-17 vehicle (Ctrl), IL-17 (50 ng/ml) alone (IL-17) or peptide (FM-0410) (50 ng/ml) and supernatants were assayed by Elisa for IL-6. Data were expressed as pg/ml and presented as means±S.D. of three separate independent experiments. Statistical analysis was conducted by one-way ANOVA followed by Bonferroni's for multiple comparisons. ^##P≤0.01, ^###P≤0.005 vs Ctrl group; *P≤0.05 vs IL-17 group. In order to assess the biological activity of synthesized peptide, we carried out in vitro studies using NIH-3T3 mouse embryonic fibroblast cells. […] With this in vitro system we measured IL-17 activity by its ability to induce IL-6 secretion by NIH-3T3 mouse embryonic fibroblast cells. Methods: The levels of IL-6 in the cellular and air pouch inflammatory supernatants at 24 h were measured using commercially available enzyme-linked immunosorbent assay kit (ELISA kit, R&D System, Milan, Italy) according to the manufacturer instructions. […] The addition of 100 μl of the substrate and stop solution represented the last steps before the reading of absorbance (measured at 450 nm) on a microplate reader. Antigen levels in the samples were determined using a standard curve and expressed as pg/ml. […]

dorsal air pouch of mice = experiment: In vivo air pouch model; settings: 1 μg/mice into air pouch, 24 h
Experimental: FIG. 3: Mice were treated with IL-17 vehicle (Ctrl), IL-17 (1 μg/mice) alone (IL-17) or peptide (FM-0410) (1 μg/mice) and thereafter total cell number from pouches inflammatory exudates was evaluated at 24 h. Data were expressed as millions of cells for pouch and presented as means±S.D. of n=7 mice per group. Statistical analysis was conducted by one-way ANOVA followed by Bonferroni's for multiple comparisons. ^##P≤0.01, ^###P≤0.005 vs Ctrl group; *P≤0.05 vs IL-17 group.
FIG. 4: Inflammatory supernatants obtained from the pouch cavities were assayed using a Proteome Profiler Cytokine Array for Ctrl, IL-17 and FM-0410 experimental group. Densitometric analysis is presented as heatmap. Data (expressed as INT/mm2) are presented as means±S.D. of positive spots of three independent experiments run each with n=7 mice per group.
FIG. 5: Mice were treated with IL-17 vehicle (Ctrl), IL-17 (1 μg/mice), or peptide (FM-0410) (1 μg/mice) and inflammatory fluids were assayed by Elisa for IL-6. Data were expressed as pg/ml and presented as means±S.D. of n=7 mice per group. Statistical analysis was conducted by one-way ANOVA followed by Bonferroni's for multiple comparisons. ^##P≤0.01 vs CTRL group. […]
Specifically, dorsal air pouches were prepared by injection of 2.5 ml of air on day 0 and day 3 as previously described (Maione et al., 2009). […] Inflammatory exudates were collected and measured to evaluate the level of inflammatory cyto-chemokines. Cell number was determined by TC20 automated cell counter (Bio-Rad, Milan, Italy) using Bio-Rad's TC20 automated cell counter uses disposable slides, TC20 trypan blue dye (0.4% trypan blue dye w/v in 0.81% sodium chloride and 0.06% potassium phosphate dibasic solution) and a CCD camera to count cells based on the analyses of capture images (Maione et al., 2018).
Methods: The levels of IL-6 in the cellular and air pouch inflammatory supernatants at 24 h were measured using commercially available enzyme-linked immunosorbent assay kit (ELISA kit, R&D System, Milan, Italy) according to the manufacturer instructions. […]

Ac-LEKILVSVGATAVTPIVHHVAC [FM-0410]
IL-6 release [1]: significant, and more abundant, release of IL-6 compared to IL-17-treated group
cyto-chemokines profile of pouch fluid (Proteome Profiler Cytokine Array) (dorsal air pouch of mice): selective upregulation in a range of mediators
level of IL-6 in pouch fluids (dorsal air pouch of mice): increased level of IL-6 compared to control group
number of inflammatory leukocytes (total cell number from pouch exudates) (dorsal air pouch of mice): marked increase in inflammatory infiltrates compared to control but also to IL-17-treated mice
